How the values were obtained:
yellow nutsedge = assay: Test C pre-/postemergence herbicide test; format: in vivo, Cyperus esculentus; conditions: preemergence
In short: (§1)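 Seeds were planted and sprayed preemergence with test chemicals in a non-phytotoxic solvent mixture containing surfactant; postemergence treatments went onto plants 2 to 18 cm tall (1- to 4-leaf stage). After 12 to 14 days in a greenhouse, injury was rated visually against untreated controls on a 0–100 scale.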

barnyardgrass = assay: Test C flooded paddy test; format: in vivo, Echinochloa crus-galli; conditions: for Plant response rating, Barnyardgrass: 500 g ai/ha, visual rating after 12 to 14 days
In short: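 Postemergence sprays applied to plants 2 to 18 cm tall (1- to 4-leaf stage); paddy species grown to 2-leaf stage under flooding. After 12 to 14 days in greenhouse, visual rating versus untreated controls on 0–100 scale (0 no effect, 100 complete control).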

[1] = tested on: common (oilseed) sunflower; assay: Test C pre-/postemergence herbicide test; format: in vivo, Helianthus annuus; conditions: preemergence
In short: as §1

bermudagrass = assay: Test C pre-/postemergence herbicide test; format: in vivo, Cynodon dactylon
In short: as §1

rice = assay: Test B pre-/postemergence herbicide test; format: in vivo, Oryza sativa; conditions: 0 = no effect, 100 = complete control, preemergence
In short: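 Response was scored visually 13 to 15 days after treatment against untreated greenhouse controls, 0 meaning no effect and 100 complete control. Formulations (solvent mixture plus surfactant) went onto soil after planting, onto foliage of 1- to 4-leaf plants, and onto 2-leaf plants in a flooded paddy set including rice and barnyardgrass.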

soybean = assay: Test C pre-/postemergence herbicide test; format: in vivo, Glycine max; conditions: preemergence
In short: as §1

pigweed = assay: Test C pre-/postemergence herbicide test; format: in vivo, Amaranthus retroflexus; conditions: preemergence
In short: as §1

giant foxtail = assay: Test C pre-/postemergence herbicide test; format: in vivo, Setaria faberi; conditions: preemergence
In short: as §1

velvetleaf = assay: Test C pre-/postemergence herbicide test; format: in vivo, Abutilon theophrasti; conditions: preemergence
In short: as §1

cocklebur = assay: Test C pre-/postemergence herbicide test; format: in vivo, Xanthium strumarium
In short: as §1

[2] = tested on: smallflower umbrella sedge; assay: Test C flooded paddy test; format: in vivo, Cyperus difformis; conditions: for Plant response rating, Sedge, Umbrella: 500 g ai/ha, visual rating after 12 to 14 days
morningglory = assay: Test C pre-/postemergence herbicide test; format: in vivo, Ipomoea coccinea; design: key to Plant response rating, Morningglory: 0 = no effect, 100 = complete control; conditions: preemergence
In short: as §1

[3] = 125 g ai/ha, scale 0 (no effect) to 100 (complete control), visual, 12 to 14 days
[4] = 500 g ai/ha, scale 0 to 100 (0 no effect, 100 complete control), visual, 12 to 14 days
[5] = 62 g ai/ha, scale 0 to 100 (0 no effect, 100 complete control)
[6] = 125 g ai/ha, scale 0 to 100 (0 no effect, 100 complete control)
[7] = 250 g ai/ha, scale of 0 to 100, 0 is no effect, 100 is complete control
[8] = scale 0 to 100 (0 no effect, 100 complete control)
[9] = 62 g ai/ha, preemergence, scale 0 to 100, 0 no effect, 100 complete control
[10] = 125 g ai/ha, scale 0 (no effect) to 100 (complete control), visual, 12 to 14 days, preemergence
[11] = 250 g ai/ha, scale 0-100, preemergence
[12] = Preemergence, 500 g ai/ha, scale 0 to 100, 0 no effect, 100 complete control
[13] = 62 g ai/ha, preemergence, scale 0 to 100
[14] = 500 g ai/ha, scale 0 to 100 (0 no effect, 100 complete control), visual, 12 to 14 days, preemergence

`CCn1nc(C(C)(C)C)cc1C(=O)Nc1cncc(C(=O)N(C)C)n1` [Compound 287] was tested. Which “Plant response rating, Nutsedge, Yellow” value (yellow nutsedge; 62 g ai/ha, scale 0 to 100) did it give?
Its value is 0.

What about the “Plant response rating, Nutsedge, Yellow” value (yellow nutsedge; [3]) of the same molecule?
Its value is 15.

And the “Plant response rating, Nutsedge, Yellow” value (yellow nutsedge; 250 g ai/ha, scale 0-100)?
The value was 60.

What about the “Plant response rating, Nutsedge, Yellow” value (yellow nutsedge; [4]) of the same molecule?
Its value is 85.

And the “Barnyardgrass plant response rating” value (barnyardgrass; [5])?
The value was 0.

And the “Barnyardgrass plant response rating” value (barnyardgrass; [6])?
The value was 0.

What about the “Barnyardgrass plant response rating” value (barnyardgrass; [7]) of the same molecule?
The value was 0.

What about the “Plant response rating, Barnyardgrass” value (barnyardgrass; [8]) of the same molecule?
The value was 25.

What about the “Plant response rating, Sunflower” value ([1]; 62 g ai/ha, scale 0 to 100) of the same molecule?
Its value is 90.

What about the “Plant response rating, Sunflower” value ([1]; 250 g ai/ha, scale 0-100) of the same molecule?
The value was 100.

What about the “Plant response rating, Sunflower” value [1, 4] of the same molecule?
Its value is 100.

What about the “Plant response rating, Bermudagrass” value (bermudagrass; [9]) of the same molecule?
The value was 85.

What about the “Plant response rating, Bermudagrass” value (bermudagrass; [10]) of the same molecule?
The value was 95.

And the “Plant response rating, Bermudagrass” value (bermudagrass; [11])?
The value was 95.

And the “Bermudagrass plant response rating” value (bermudagrass; [12])?
Its value is 95.

What about the “Rice plant response rating (0 to 100 scale)” value (rice; 125 g ai/ha) of the same molecule?
Its value is 80.

And the “Plant response rating, Rice” value (rice; 500 g ai/ha, visual rating)?
The value was 90.

And the “Plant response rating, Soybean” value (soybean; 62 g ai/ha, scale 0 to 100)?
Its value is 0.

And the “Plant response rating, Soybean” value (soybean; 250 g ai/ha, scale 0-100)?
Its value is 85.

What about the “Plant response rating, Soybean” value (soybean; [4]) of the same molecule?
The value was 95.

What about the “Plant response rating, Pigweed” value (pigweed; 62 g ai/ha, scale 0 to 100) of the same molecule?
Its value is 100.

What about the “Plant response rating, Pigweed” value (pigweed; [3]) of the same molecule?
Its value is 100.

What about the “Plant response rating, Pigweed” value (pigweed; 250 g ai/ha, scale 0-100) of the same molecule?
Its value is 100.

What about the “Plant response rating, Pigweed” value (pigweed; [4]) of the same molecule?
The value was 100.

What about the “Plant response rating, Foxtail, Giant” value (giant foxtail; 62 g ai/ha, scale 0 to 100) of the same molecule?
The value was 0.

And the “Plant response rating, Foxtail, Giant” value (giant foxtail; [3])?
Its value is 70.

And the “Plant response rating, Foxtail, Giant” value (giant foxtail; 250 g ai/ha, scale 0-100)?
The value was 85.

And the “Plant response rating, Foxtail, Giant” value (giant foxtail; [4])?
Its value is 100.

And the “Plant response rating, Velvetleaf” value (velvetleaf; 62 g ai/ha, scale 0 to 100)?
Its value is 40.

And the “Plant response rating, Velvetleaf” value (velvetleaf; 250 g ai/ha, scale 0-100)?
The value was 100.

What about the “Plant response rating, Velvetleaf” value (velvetleaf; [4]) of the same molecule?
The value was 100.

What about the “Plant response rating, Cocklebur” value (cocklebur; [13]) of the same molecule?
Its value is 0.

And the “Plant response rating, Cocklebur” value (cocklebur; [10])?
Its value is 0.

What about the “Plant response rating, Cocklebur” value (cocklebur; [11]) of the same molecule?
Its value is 10.

What about the “Cocklebur plant response rating” value (cocklebur; [12]) of the same molecule?
The value was 60.

And the “Sedge, Umbrella plant response rating” value ([2]; 62 g ai/ha, scale 0 to 100)?
Its value is 0.

What about the “Sedge, Umbrella plant response rating” value [2, 6] of the same molecule?
Its value is 35.

What about the “Sedge, Umbrella plant response rating” value [2, 7] of the same molecule?
Its value is 70.

What about the “Plant response rating, Sedge, Umbrella” value [2, 8] of the same molecule?
Its value is 75.

For `CCNC(=O)c1cccc(NC(=O)c2nn(C(C)(C)CC)nc2CC)c1` [Compound 376], which “Plant response rating, Nutsedge, Yellow” value (yellow nutsedge; 62 g ai/ha, scale 0 to 100) is on record?
Its value is 5.

What about the “Plant response rating (0 = no effect, 100 = complete control), Nutsedge, Yellow” value (yellow nutsedge; 125 g ai/ha) of the same molecule?
Its value is 30.

What about the “Plant response rating, Nutsedge, Yellow” value (yellow nutsedge; 250 g ai/ha, scale 0-100) of the same molecule?
The value was 40.

And the “Plant response rating, Nutsedge, Yellow” value (yellow nutsedge; [4])?
Its value is 60.

And the “Barnyardgrass plant response rating” value (barnyardgrass; [5])?
Its value is 45.

And the “Barnyardgrass plant response rating” value (barnyardgrass; [6])?
Its value is 65.

And the “Barnyardgrass plant response rating” value (barnyardgrass; [7])?
Its value is 70.

And the “Plant response rating, Barnyardgrass” value (barnyardgrass; [8])?
The value was 75.

And the “Plant response rating, Morningglory” value (morningglory; 62 g ai/ha, scale 0 to 100)?
The value was 0.

And the “Plant response rating (0 = no effect, 100 = complete control), Morningglory” value (morningglory; 125 g ai/ha)?
The value was 0.

And the “Plant response rating, Morningglory” value (morningglory; 250 g ai/ha, scale 0-100)?
Its value is 5.

What about the “Plant response rating, Morningglory” value (morningglory; [4]) of the same molecule?
The value was 5.

And the “Plant response rating, Sunflower” value ([1]; 62 g ai/ha, scale 0 to 100)?
The value was 0.

And the “Plant response rating (0 = no effect, 100 = complete control), Sunflower” value ([1]; 125 g ai/ha)?
Its value is 0.

What about the “Plant response rating, Sunflower” value ([1]; 250 g ai/ha, scale 0-100) of the same molecule?
Its value is 0.

What about the “Plant response rating, Sunflower” value [1, 4] of the same molecule?
Its value is 0.

What about the “Plant response rating, Bermudagrass” value (bermudagrass; [9]) of the same molecule?
Its value is 80.

And the “Plant response rating (0 = no effect, 100 = complete control), Bermudagrass” value (bermudagrass; 125 g ai/ha, preemergence)?
Its value is 90.

What about the “Plant response rating, Bermudagrass” value (bermudagrass; [11]) of the same molecule?
The value was 100.

What about the “Plant response rating, Bermudagrass” value (bermudagrass; [14]) of the same molecule?
Its value is 100.

And the “Plant response rating, Soybean” value (soybean; 62 g ai/ha, scale 0 to 100)?
The value was 0.

And the “Plant response rating (0 = no effect, 100 = complete control), Soybean” value (soybean; 125 g ai/ha)?
The value was 10.

And the “Plant response rating, Soybean” value (soybean; 250 g ai/ha, scale 0-100)?
The value was 10.

And the “Plant response rating, Soybean” value (soybean; [4])?
Its value is 10.

And the “Plant response rating, Pigweed” value (pigweed; 62 g ai/ha, scale 0 to 100)?
Its value is 100.

What about the “Plant response rating (0 = no effect, 100 = complete control), Pigweed” value (pigweed; 125 g ai/ha) of the same molecule?
The value was 100.

What about the “Plant response rating, Pigweed” value (pigweed; 250 g ai/ha, scale 0-100) of the same molecule?
The value was 100.

What about the “Plant response rating, Pigweed” value (pigweed; [4]) of the same molecule?
The value was 100.

What about the “Plant response rating, Foxtail, Giant” value (giant foxtail; 62 g ai/ha, scale 0 to 100) of the same molecule?
The value was 10.

And the “Plant response rating (0 = no effect, 100 = complete control), Foxtail, Giant” value (giant foxtail; 125 g ai/ha)?
The value was 85.

What about the “Plant response rating, Foxtail, Giant” value (giant foxtail; 250 g ai/ha, scale 0-100) of the same molecule?
Its value is 95.

What about the “Plant response rating, Foxtail, Giant” value (giant foxtail; [4]) of the same molecule?
The value was 100.

And the “Plant response rating, Velvetleaf” value (velvetleaf; 62 g ai/ha, scale 0 to 100)?
The value was 0.

What about the “Plant response rating (0 = no effect, 100 = complete control), Velvetleaf” value (velvetleaf; 125 g ai/ha) of the same molecule?
Its value is 5.

And the “Plant response rating, Velvetleaf” value (velvetleaf; [4])?
The value was 50.

What about the “Plant response rating, Cocklebur” value (cocklebur; [13]) of the same molecule?
Its value is 0.

And the “Plant response rating (0 = no effect, 100 = complete control), Cocklebur” value (cocklebur; 125 g ai/ha, preemergence)?
The value was 0.

And the “Plant response rating, Cocklebur” value (cocklebur; [11])?
Its value is 0.

What about the “Plant response rating, Cocklebur” value (cocklebur; [14]) of the same molecule?
The value was 5.

What about the “Sedge, Umbrella plant response rating” value ([2]; 62 g ai/ha, scale 0 to 100) of the same molecule?
Its value is 80.

And the “Sedge, Umbrella plant response rating” value [2, 6]?
Its value is 85.

And the “Sedge, Umbrella plant response rating” value [2, 7]?
Its value is 85.

And the “Plant response rating, Sedge, Umbrella” value [2, 8]?
Its value is 85.

Source: patent US20060069132A1, “Azolecarboxamide herbicides” (priority 2004, published 2006)
